In assay [1] the target is T1, GFP-Grb7 SH2 domain and 41-mRLUC-3×Flag complex (Homo sapiens, UniProt Q14451).
T1 construct: expressed in transfected cells; host or cells: HEK293T
Briefly: Competition immunoprecipitation, GFP-Grb7 SH2 domain and 41-mRLUC-3×Flag complex. It counts as binding. The text has this: To see whether the nonphosphorylated peptide could effectively compete with phosphorylated ligand for binding to the Grb7 SH2 domain, the phosphorylated ligand pY (1180) (DEEYEpY(1180)MNRRR), which was previously shown to interact with the Grb7 SH2 domain [6], and the nonphosphorylated 41-A ligand ([…]), which contains the first twenty-two amino acid-motif close to the N-terminus of peptide 41, were examine for their abilities to interfere with the GFP-Grb7 SH2 domain and 41-mRLUC-3×Flag complex using immunoprecipitation with anti-GFP antibody.
The phosphorylated ligand pY (1180) (DEEYEpY(1180)MNRRR) from the ErbB3 and the nonphosphorylated peptide 41-A ([…] RV) from nonphosphorylated peptide 41 were synthesized by the China Peptides Co., Ltd. The HPLC purification analysis and MS quality analysis reports were obtained.
HEK293T cells were washed 5 times with ice-cold PBS buffer and scraped off the plates into cell lysis buffer (1% Nonidet P-40, 0.02 M TRIS (pH 7.5), 0.15 M sodium chloride, 0.001 M EDTA, 0.5% sodium deoxycholate, 0.1% SDS and 0.001 M PMSF). Lysates were incubated on ice for 5 minutes, vortexed 2 times for 30 seconds each and centrifuged at 12,000 rpm for 15 minutes at 4°C. After centrifuging twice, the supernatant was incubated with anti-Flag antibody (1∶100, M20008M, Abmart, China) for 6–8 h at 4°C. Protein G agarose (40 µL) was added into 1 mL of the above mixture and coupled to the anti-Flag antibody for 3 h at 4°C. The immunoprecipitates were washed 2–3 times with PBS buffer (PH 7.4), and the sediments were diluted with 5×SDS electrophoresis buffer and heated at 97°C for 10 minutes. The proteins were separated by SDS-PAGE and transferred to PVDF membranes (IPVH00010, Millipore, USA). The membranes were incubated with anti-GFP antibody (1∶2000, P30010, Abmart, China) and goat anti-rabbit secondary antibody (1∶4000, M21002, Abmart, China) to identify target proteins. For the competition analyses, the immunoprecipitation complexes were mixed with anti-Flag antibody and different concentrations of the synthesized phosphorylated ligands or the nonphosphorylated ligands. The proteins were separated by SDS-PAGE, and the SH2 domain of Grb7 protein was analyzed using anti-GFP antibody. Western blot analysis was carried out using the Image J [37], the IC50 values were calculated by regression analyses using SPSS 17.0.

Assay [2] relates to EYFP-tagged Grb7 SH2 domain. Briefly: Bioluminescence Resonance Energy Transfer (BRET) in HEK293T cells. It counts as cell-based. As to conditions: 36 h after transfection, EYFP-Grb7 SH2 + mRLUC-tagged peptide, coelenterazine 5.9 µM, eighteen group ratios. The text has this:
For the BRET assay, the EYFP fragment was generated by PCR amplification. The ErbB3-mRLUC plasmid was constructed by the Beijing Sino Biological Inc. The SH2 domain of Grb7 was fused to the EYFP fragment, and the nonphosphorylated peptides 10 and 41 were fused to the mRLUC fragment. The Grb7 SH2 domain sequence was inserted at the C-terminus of the EYFP tag.
HEK293T cells at 70%–80% confluency were given fresh DMEM (high glucose) culture medium and transfected with plasmids using the calcium phosphate method. Samples were collected at 36 h after transfection.
In BRET, the Renilla luciferase (mRLUC) is fused to the candidate protein, and the green fluorescent protein mutant (EYFP) is fused to the target protein. Interactions between the two fused proteins bring the luciferase and the green fluorescent protein into close proximity, which promotes resonance energy transfer from mRLUC to EYFP [38]. Then EYFP is […] at 530 nm, and the emission is used to determine the binding between the two interacting proteins. In this study, HEK293T cells were collected at 36 h after transfection, 100 µL of mixed cell suspension was added to the u-bottom 96-well microtiter plates (Corning, USA) before measurement. The measurement of bioluminescence, with rasters of 460/40 nm and 518/20 nm, was performed on Synergy4 Multi-Mode Microplates Readers (BioTek, USA). The BRET reaction was initiated by 5.9 µM coelenterazine (Promega, USA). Data were analyzed by one-factor analysis of variance using SPSS 17.0.

The subject of another assay is Grb7 SH2 domain. In words: Yeast two-hybrid, Grb7 SH2 domain. It counts as cell-based. As to conditions: yeast strain CG1945, GAL4 BD-SH2 bait, SD/-Trp-His-Leu selection and three independent improved LacZ tests. The text has this: To see whether the conserved residues were required for association with the Grb7 SH2 domain, the peptide 10 was used as the mutation template to design three mutated peptides: the N-GIPT deletion mutation (10AM), the C-GIP deletion mutation (10BM) and the both N-GIPT and C-GIP deletion mutation (10CM).
The ABL_1 and Grb2 plasmids were gifts from Professor Ruibao Ren (Brandeis University, USA), and the Grb7 (BC006535) and Grb14 cDNA (BC053559) plasmids were from the Proteintech Group. The inserted sequences of the SH2 domains were as follows: Grb7: N-[…]-C; Grb2: N-[…]-C; ABL_1: N-[…]-C; and Grb14: N-[…]-C.
In the mutation assay, the control and mutation sequences were as follows:
The GAL4 BD-SH2 fusion bait plasmids were transformed into the yeast strain CG1945 using the lithium acetate protocol. The transformants were grown on SD/-Trp plates and spread on SD/-Trp-His plates for self-activation estimation. Those transformants without background growth or growth inhibited by 3-amino-1, 2, 4-triazole were selected for the subsequent screening. Approximately 3.01×10^6 clones of the random peptide library (Protocol No. PT303921, Clontech, USA), as AD baits, were effectively transformed into yeast strain CG 1945 containing BD bait plasmids and used to be screened according to the MATCHMAKER Two-Hybrid System protocol (Cat. No. 630489, Clontech, USA). Plasmids of potential positive transformants selected on plates with SD/-Trp-His-Leu medium in the primary screening were isolated and retransformed into the CG1945 cells containing the corresponding SH2 bait plasmids. The improved LacZ assay was then performed. Clones that were positive for all of the reporter assays and confirmed by three independent improved LacZ tests were selected for specific interactions.

Another assay concerns the target T2, EGFP-Grb7 SH2 (human).
T2 construct: SH2 domain of Grb7, inserted at the C terminus of the EGFP tag; also called GFP-Grb7 SH2 domain; Grb7 SH2 domain; source: HEK293T, transfected (calcium phosphate), in lysate; not shown: EGFP, N-terminal, kept
T2 chain: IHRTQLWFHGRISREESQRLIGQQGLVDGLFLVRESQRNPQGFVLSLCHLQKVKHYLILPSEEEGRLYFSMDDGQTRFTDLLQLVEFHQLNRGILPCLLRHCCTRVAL
Briefly: co-IP; competition: synthetic peptide (0.0072, 0.036, 0.18 mM) added to the immunoprecipitation complexes of Grb7 SH2 domain and 41-mRLUC-3×Flag; Grb7 SH2 blotted with anti-GFP, bands scanned (ImageJ), IC50 by regression. As to conditions: one partner purified.

Assay [3] concerns SK-BR-3 breast cancer cells. Briefly: MTS cell proliferation assay. As to conditions: beginning from 24 h (measured 18, 24, 36, 48, 60 h after transfection), absorbance 492 nm, vs mRLUC-3×Flag control, p<0.01. The assay is classed as cell-based. The procedure: For the cell proliferation assay, the anti-Grb7 antibody (N-20, Santa Cruz Biotechnology, USA) and the anti-Flag antibody (M20008M, Abmart, China) were used for the western blot, and MTS (Promega, USA) was used for the analysis of cell proliferation.
The MTS cell proliferation assay was performed to analyze the proliferation of SK-BR-3 breast cancer cells (Cell culture center of PUMC, China) according to the manufacturer's instructions (Promega, USA). SK-BR-3 cells at 70%–80% confluency were transiently transfected respectively with plasmids of 41-mRLUC-3×Flag or mRLUC-3×Flag and Mega Tran 1.0 (OriGene, USA). Beginning from 12 h after transfection, 400 µg/mL G418 (11811-023, Invitrogen, USA) was used to select for the transfected cells. The u-bottom 96-well microtiter plates (Corning, USA) were seeded with approximately 7.50×10^3 cells per well at 18 h after transfection. […] The absorbance at 492 nm of transfected cells and control DMEM medium was measured separately at 18 h, 24 h, 36 h, 48 h and 60 h after transfection on Synergy4 Multi-Mode Microplates Readers (BioTek, USA). The absorbance was adjusted by differences in the absorbance between cell culture medium and control medium without seeded cells. The data were analyzed by double-factor variance analysis using SPSS 17.0.
(Tetrazolium assays rely on reduction of a dye to a coloured formazan, in cell work by metabolically active cells.)

Non-standard residues stand in square brackets, D forms with d. No end group written: not given here. pY = N[C@@H](Cc1ccc(OP(=O)(O)O)cc1)C(=O)O

Consider “VAVGIPTQPTTSSEPSPPSNPPWDPGRV [peptide 41-A, synthesized nonphosphorylated ligand containing the first twenty-two amino acid-motif of peptide 41]”, for which the “interference with binding of the Grb7 SH2 domain to peptide 41” value in assay [1] (0.0072 mM) is “did not significantly interfere”; in assay [1] (0.036 mM) it was “did not significantly interfere”; in assay [1] (0.18 mM), “nearly abolished”. The “disruptive effect on the Grb7 SH2 domain/peptide 41 interaction” value in assay [1] (Figure 3A, overall, concentration not given) is listed as “even stronger than that of the pY (1180) ligand”. The “binding affinity to the Grb7 SH2 domain, comparison of 41-A and pY (1180)” value in assay [1] (in vitro competition, in words) was “at least comparable binding affinities to the Grb7 SH2 domain”.

Regarding “ErbB3: mRLUC-tagged ErbB3, expressed from ErbB3-mRLUC plasmid”, the “BRET luminescence ratio of 530/480 nm” value in assay [2] is listed as “strongest luminescence”.

With “N-AGVESLGIPNYTPTTPTLLLTRPLP RGLRGW-C (AGVESLGIPNYTPTTPTLLLTRPLPRGLRGW; left off: Gal4 activation domain (inferred: two-hybrid prey), end not stated, kept) [10BM, C-GIP deletion mutation of peptide 10]”, the “recognition by / interaction with the Grb7 SH2 domain” value (shortened to “recognition by / interaction”) in the assay with Grb7 SH2 domain is recorded as “None of the three mutations were recognized by the Grb7 SH2 domain”.

For “N-AGVESLYTPTTPTLLLTRPLPRGLRGW-C [peptide 10CM, both N-GIPT and C-GIP deletion mutation of peptide 10]”, the “recognition by / interaction” value in the assay on Grb7 SH2 domain was “None of the three mutations were recognized by the Grb7 SH2 domain”. For the same molecule, the “BRET luminescence ratio of 530/480 nm” value in assay [2] is “non-interacting”.

Take “N-GMWEGLEGGGVAGVESLGIPNYTPTTPTLLLTRPLPGIPRGLRGWSLLRCCRLLCRNSYITAAPKHHHPLQTSPRGSPGLQEFDIKLIDTVDLEGGPGTQFAL-C [peptide 10, nonphosphorylated peptide identified from random peptide library; mutation template]”: the “BRET luminescence ratio of 530/480 nm” value is listed as “significantly stronger” in assay [2] and “slightly stronger BRET signals compared to peptide 41” in assay [2] (listed as Peptide 10).

“N-AGVESL YTPTTPTLLLTRPLPGIPRGLRGW-C [10AM, N-GIPT deletion mutation of peptide 10]”: the “recognition by / interaction” value in the assay on Grb7 SH2 domain is recorded as “None of the three mutations were recognized by the Grb7 SH2 domain”.

B1: nonphosphorylated 41-A ligand (peptide)
peptide: VAVGIPTQPTTSSEPSPPSNPPWDPGRV
notes: stretch of peptide 41 with its first 22-residue motif; also called peptide 41-A; source: synthetic peptide (China Peptides Co., Ltd.)
By IC50 is commonly meant the midpoint of a concentration-inhibition curve. Lower therefore signals higher potency. The molecule B1 registered an IC50 with EGFP-Grb7 SH2 of 18.8 µM.

B2: 41-mRLUC-3×Flag: fusion protein of peptide 41 with mRLUC and 3×Flag, expressed from transfected plasmid (protein)
chain: VGTWTTRGPWCPCVAVGIPTQPTTSSEPSPPSNPPWDPGRVLLGRIVWPGLLALGIPTHHQNDTYNSPHAHPNRDP
modifications: left off: mRLUC, C-terminal, kept | 3×Flag, C-terminal, kept
notes: fusion protein of peptide 41 with mRLUC and 3×Flag, expressed from transfected plasmid
Take B2: the “proliferation of transfected SK-BR-3 cells (MTS absorbance)” value in assay [3] was “significantly slower than that of the mRLUC-3×Flag control group”.

B3: phosphorylated ligand pY (1180) from ErbB3 (peptide)
peptide: DEEYE[pY]MNRRR
notes: ErbB3 stretch around Y1180; source: synthetic peptide (China Peptides Co., Ltd.)
In the assay with EGFP-Grb7 SH2, B3 showed an IC50 of 31.8 µM.

The values are drawn from PMC3256188, “Novel Nonphosphorylated Peptides with Conserved Sequences Selectively Bind to Grb7 SH2 Domain with Affinity Comparable to Its Phosphorylated Ligand” (PLoS ONE, 2012).
